Assay [1] has as its system P388 lymphocytic leukemia (PS cell line). Description: P388 lymphocytic leukemia (PS) cell line growth inhibition. Type of assay: cell-based, murine. To be noted: Mus musculus. From the text: (§1) The isolation and purification methods chosen can be monitored at each step by performing in-vitro and/or in-vivo antitumor tests as described by R. I. Geran, N. H. Greenberg, M. M. MacDonald, A. M. Schumacher and B. S. Abbot in Cancer Chemother. Rep. Part 3, Vol 3: 1-103 (1972); and by Schmidt, J. M.; Pettit, G. R. in Experientia 1978, 34: 659-660. Such tests include the determination of the concentration of active material required to inhibit the growth of tumor cells in culture, (e.g. the concentration required to inhibit growth by 50 percent or the E.D.50) and of the dose of active material required to prolong the life of mice bearing transplanted tumors. The chemical structures of the bryostatins of the present invention are shown below and the physical characteristics are reported in the pertinent examples. The structures are: [drawing 2]

For assay [2], the system named is P388 lymphocytic leukemia (PS system). Description: in vivo antitumor test in mice bearing P388 lymphocytic leukemia (PS system), life extension / T/C.
Text: as §1

Assay [3] concerns P388 lymphocytic leukemia and other NCI test systems. The assay can be described thus: cell growth inhibitory and antineoplastic activity against P388 lymphocytic leukemia and other NCI test systems. Set-up: species or system murine.
Text: as §1

[4] abbreviates: P388 lymphocytic leukemia cell line, read-out: PS cell line growth inhibition ED50.

Each structure is given as a SMILES string. ≈ marks a conversion by molar mass, not a printed value. Like-named read-outs stand apart in the source and are kept apart here.

Take `CCCC(=O)O[C@H]1/C(=C/C(=O)OC)C[C@H]2C[C@H]([C@@H](C)O)OC(=O)C[C@H](O)C[C@@H]3C[C@H](OC(C)=O)C(C)(C)[C@](O)(C[C@@H]4C/C(=C/C(=O)OC)C[C@H](/C=C/C(C)(C)[C@]1(O)O2)O4)O3` [Bryostatin 9]: the IC50 in assay [1] (P388 lymphocytic leukemia, growth inhibition, read-out: PS ED50) came out at 1.2 ng/mL (≈ 1.41 nM). This molecule yielded a life extension in assay [2] (at 80 μg/kg) of 40%. In assay [3], the “cell growth inhibitory and antineoplastic activity” value is “substantial cell growth inhibitory and antineoplastic activity”.
In the case of `COC(=O)/C=C1/C[C@H]2C[C@]3(O)O[C@H](C[C@@H](O)CC(=O)O[C@@H]([C@@H](C)O)C[C@@H]4C/C(=C\C(=O)OC)C[C@@](O)(O4)C(C)(C)/C=C/[C@@H](C1)O2)C[C@H](OC(C)=O)C3(C)C` [Bryostatin 11], the IC50 in assay [1] (setting [4]) came out at 0.018 ng/mL (≈ 0.0235 nM). In assay [2] (at 92.5 μg/kg), the “in vivo growth inhibition” value came to 64%. Moreover, the “cell growth inhibitory and antineoplastic activity” value in assay [3] is “substantial cell growth inhibitory and antineoplastic activity”.
On to `CCC/C=C/C=C/C(=O)O[C@H]1/C(=C/C(=O)OC)C[C@H]2C[C@H]([C@@H](C)O)OC(=O)C[C@H](O)C[C@@H]3C[C@H](OC(=O)CCC)C(C)(C)[C@](O)(C[C@@H]4C/C(=C/C(=O)OC)C[C@H](/C=C/C(C)(C)[C@]1(O)O2)O4)O3` [Bryostatin 12], for which the IC50 in assay [1] (setting [4]) amounted to 14 ng/mL (≈ 15 nM). For the same molecule, the life extension in assay [2] (at 30-50 μg/kg) is on record as 47-68%. The “cell growth inhibitory and antineoplastic activity” value in assay [3] was “substantial cell growth inhibitory and antineoplastic activity”.
Regarding `CCCC(=O)O[C@H]1C[C@H]2C[C@@H](O)CC(=O)O[C@@H]([C@@H](C)O)C[C@@H]3C/C(=C\C(=O)OC)C[C@@](O)(O3)C(C)(C)/C=C/[C@H]3C/C(=C\C(=O)OC)C[C@@H](C[C@](O)(O2)C1(C)C)O3` [Bryostatin 13], the IC50 in assay [1] (setting [4]) came out at 5.4 ng/mL (≈ 6.79 nM). Besides, the “cell growth inhibitory and antineoplastic activity” value in assay [3] was “substantial cell growth inhibitory and antineoplastic activity”.

The values are drawn from US4833257A, “Compositions of matter and methods of using same” (Arizona Board of Regents, priority 1986, dated 1989).
